Some test systems named below: NALM-6; KASUMI-2; COG-LL-317.
Common to all, as to assay: selective drug sensitivity score (sDSS, relative to normal bone marrow) (sDSS (score)); higher = more potent and effective on the cell line relative to normal bone marrow cells
Common to all, as to details: 72 h
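Also: ALL cell lines in 384-well plates, five doses spanning 10,000-fold, each plate scaled between vehicle and 100 µmol/L benzalkonium chloride controls, sDSS an adapted area-under-curve metric.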

As for `CNC(=O)c1nn(C)c2c1C(C)(C)Cc1cnc(Nc3ccc(N4CCN(C)CC4)cc3)nc1-2` [Milciclib] (top concentration 10000 nM), the “selective drug sensitivity score” value is 1.94 with NALM-6, -2.56 in the assay with KASUMI-2 and 8.94 in the assay on COG-LL-317.
The matching figures for `CN1CC[C@H](c2c(O)cc(O)c3c(=O)cc(-c4ccccc4Cl)oc23)[C@H](O)C1` [Alvocidib] (top concentration 10000 nM): -1.2, -2.8 and 1.7.
The like results for `COc1ccc(S(=O)(=O)Nc2cccnc2Nc2ccc(O)cc2)cc1` [ABT-751] (top concentration 10000 nM) were, in that order, 10.7, 4.72 and 11.4.
The like results for `CC(=O)Nc1cccc(-n2c(=O)n(C3CC3)c(=O)c3c(Nc4ccc(I)cc4F)n(C)c(=O)c(C)c32)c1` [Trametinib] (top concentration 250 nM) were, in that order, 2.86, 5.86 and -7.74.
As for `CC(C)c1cc(C(=O)N2Cc3ccc(CN4CCN(C)CC4)cc3C2)c(O)cc1O` [Onalespib] (top concentration 2500 nM), the “selective drug sensitivity score” value came out at 5.52 with NALM-6, 7.72 with KASUMI-2 and 11.5 in the assay with COG-LL-317.
The matching figures for `CS(=O)(=O)c1ccc(C(=O)Nc2ccc(Cl)c(-c3ccccn3)c2)c(Cl)c1` [Vismodegib] (top concentration 10000 nM): -1.14, 3.96 and -1.14.
On to `O=C(Nc1ccncc1)C(=O)c1cn(Cc2ccc(Cl)cc2)c2ccccc12` [Indibulin] (top concentration 10000 nM), for which the “selective drug sensitivity score” value was 0.34 with NALM-6, 7.14 in the assay on KASUMI-2 and 6.24 in the assay on COG-LL-317.
The matching figures for `COc1cc(Nc2ncc(F)c(Nc3ccc4c(n3)N(COP(=O)(O)O)C(=O)C(C)(C)O4)n2)cc(OC)c1OC` [Fostamatinib] (top concentration 2500 nM): 2.96, -2.84 and -2.84.
The like results for `Cn1ncc(Cl)c1-c1cc(C(=O)N[C@H](CN)Cc2cccc(F)c2)sc1Cl` [Afuresertib] (top concentration 1000 nM) were, in that order, 4.66, 10.2 and 5.26.
`CCN1CCN(Cc2ccc(Nc3ncc(F)c(-c4cc(F)c5nc(C)n(C(C)C)c5c4)n3)nc2)CC1` [Abemaciclib] (top concentration 2500 nM): the “selective drug sensitivity score” value is -4.46 with NALM-6, 1.74 with KASUMI-2 and -2.36 in the assay with COG-LL-317.
In the case of `Cc1ncc(-c2ccnc(Nc3ccc(S(C)(=O)=O)cc3)n2)n1C(C)C` [AZD-5438] (top concentration 10000 nM), the “selective drug sensitivity score” value was 1.44 in the assay on NALM-6, -0.86 with KASUMI-2 and -0.56 in the assay with COG-LL-317.
For `C[C@]1(c2nc3c(C(N)=O)cccc3[nH]2)CCCN1` [Veliparib] (top concentration 10000 nM), the “selective drug sensitivity score” value in the assay with NALM-6 was -2.48; in the assay on KASUMI-2 it was 2.82; with COG-LL-317, 1.72.
The matching figures for `O=C(Nc1cccc(Nc2ncc(Br)c(NCCc3cnc[nH]3)n2)c1)N1CCCC1` [BX-912] (top concentration 10000 nM): 6.46, 5.86 and 9.46.
`C=C1C[C@@H]2[C@H](CC[C@]3(C)C(=O)CC[C@@H]23)[C@@]2(C)C=CC(=O)C=C12` [Exemestane] (top concentration 10000 nM): the “selective drug sensitivity score” value in the assay on NALM-6 was 1.5; with KASUMI-2, 2.3; with COG-LL-317, 0.
Turning to `Nc1ncnc2c1nc(Cl)n2[C@@H]1O[C@H](CO)[C@@H](O)[C@H]1O` [8-chloro-adenosine] (top concentration 50000 nM), the “selective drug sensitivity score” value with NALM-6 was 1.1; with KASUMI-2, -1.8; in the assay with COG-LL-317, 6.
Regarding `Cc1ccc(C(=O)Nc2cccc(C(F)(F)F)c2)cc1Nc1nc(-c2cccnc2)nc2c1cnn2C` [NVP-BHG712] (top concentration 10000 nM), the “selective drug sensitivity score” value was -2.32 with NALM-6, 2.38 with KASUMI-2 and 1.48 in the assay on COG-LL-317.
The like results for `CN(C)CCOc1ccc(/C(=C(/CCCl)c2ccccc2)c2ccccc2)cc1` [Toremifene] (top concentration 10000 nM) were, in that order, 1.68, 5.68 and -0.22.
The like results for `NCC(=O)Nc1ccc(-n2nc(C(F)(F)F)cc2-c2ccc3c(ccc4ccccc43)c2)cc1` (top concentration 25000 nM) were, in that order, 13.3, 0.1 and 11.3.
Take `CC(C)C[C@H](NC(=O)CNC(=O)c1cc(Cl)ccc1Cl)B(O)O` [Ixazomib] (top concentration 1000 nM): the “selective drug sensitivity score” value with NALM-6 was found to be 6.66; with KASUMI-2 it was 4.66; in the assay on COG-LL-317 it was 6.26.
The matching figures for `COc1cc(N2CCC(N3CCN(C)CC3)CC2)ccc1Nc1ncc(Cl)c(Nc2ccccc2P(C)(C)=O)n1` [Brigatinib] (top concentration 1000 nM): 0.26, -3.24 and -2.34.
The matching figures for `C=C(c1ccc(C(=O)O)cc1)c1cc2c(cc1C)C(C)(C)CCC2(C)C` [Bexarotene] (top concentration 10000 nM): -3.4, -5.3 and -5.1.
The like results for `Cc1cc(-c2nc(-c3ccc(OC(F)(F)F)cc3)no2)nn1Cc1ccnc(N2CCN(C3CC3)CC2)c1` [BAY_87-2243] (top concentration 1000 nM) were, in that order, 10, -8.66 and -0.96.
In the case of `NS(=O)(=O)OC[C@@H]1C[C@@H](n2ccc3c(N[C@H]4CCc5ccccc54)ncnc32)C[C@@H]1O` [Pevonedistat] (top concentration 10000 nM), the “selective drug sensitivity score” value was determined as 12.1 in the assay on NALM-6, 6.3 in the assay with KASUMI-2 and 15.7 in the assay with COG-LL-317.
The like results for `COc1cccc2c1C(=O)c1c(O)c3c(c(O)c1C2=O)C[C@@](O)(C(=O)CO)C[C@@H]3O[C@H]1C[C@H](N)[C@H](O)[C@H](C)O1` [Doxorubicin] (top concentration 1000 nM) were, in that order, 3.38, 7.68 and 15.
Turning to `Cn1nccc1Nc1nccc(-c2ccn([C@H](CO)c3ccc(Cl)c(F)c3)c(=O)c2)n1` [Ravoxertinib] (top concentration 10000 nM), the “selective drug sensitivity score” value was 4 in the assay on NALM-6, 4.2 with KASUMI-2 and 4.8 in the assay with COG-LL-317.
The like results for `Cn1cncc1[C@@](N)(c1ccc(Cl)cc1)c1ccc2c(c1)c(-c1cccc(Cl)c1)cc(=O)n2C` [Tipifarnib] (top concentration 10000 nM) were, in that order, 10.6, -1.3 and 15.3.
As for `CC1(C)OCCn2c1nc1c(N3CCOCC3)nc(-c3cnc(N)nc3)nc12` [GDC-0084] (top concentration 10000 nM), the “selective drug sensitivity score” value in the assay with NALM-6 was determined as 7; with KASUMI-2 it was 6; in the assay on COG-LL-317 it was 3.1.
The like results for `COCCNCc1ccc(-c2cc3nccc(Oc4ccc(NC(=S)NC(=O)Cc5ccc(F)cc5)cc4F)c3s2)nc1` [Glesatinib] (top concentration 2500 nM) were, in that order, -1.96, 4.74 and 0.64.
The like results for `Cc1cc(Nc2ncc(Cl)c(Nc3ccccc3S(=O)(=O)C(C)C)n2)c(OC(C)C)cc1C1CCNCC1` [Ceritinib] (top concentration 2500 nM) were, in that order, -0.74, -3.44 and -3.44.
The like results for `Cc1cn(-c2cc(NC(=O)c3ccc(C)c(Nc4nccc(-c5cnccn5)n4)c3)cc(C(F)(F)F)c2)cn1` [Radotinib] (top concentration 10000 nM) were, in that order, 0.9, 0 and 0.
On to `CC1CCC(n2c3cnccc3c3cnc(Nc4ccc5c(n4)CCN(C(=O)CO)C5)nc32)CC1` (stereo not drawn) [AMG-925] (top concentration 1000 nM), for which the “selective drug sensitivity score” value is 4.74 in the assay on NALM-6, -0.66 in the assay with KASUMI-2 and 1.44 in the assay on COG-LL-317.
Regarding `COc1cccc(OCCCN)c1-c1cc(Nc2cnc(C#N)cn2)n[nH]1` [Prexasertib] (top concentration 10000 nM), the “selective drug sensitivity score” value was 18.4 in the assay on NALM-6, 16.2 in the assay with KASUMI-2 and 20.2 in the assay on COG-LL-317.
Take `CNCc1ccc(-c2[nH]c3cc(F)cc4c3c2CCNC4=O)cc1` [Rucaparib] (top concentration 10000 nM): the “selective drug sensitivity score” value came out at 0.62 in the assay on NALM-6, 3.02 with KASUMI-2 and 6.52 with COG-LL-317.
The like results for `Cc1noc2c1-c1ccccc1C(c1ccc(Cl)cc1)=N[C@H]2CC(N)=O` [CPI-0610] (top concentration 10000 nM) were, in that order, 5.6, -5.8 and 3.3.
Regarding `O=c1[nH]c(C2CCCN2)nc2c1oc1ccc(Cl)cc12` (stereo not drawn) (top concentration 10000 nM), the figures for the “selective drug sensitivity score” value in the assay on NALM-6, in the assay on KASUMI-2 and with COG-LL-317 were -0.4, 7.2 and 3.3, respectively.
In the case of `O=C(CCCCCCC(=O)Nc1ccc([C@H]2O[C@@H](CSc3nc(-c4ccccc4)c(-c4ccccc4)o3)C[C@@H](c3ccc(CO)cc3)O2)cc1)NO` [Tubacin] (top concentration 10000 nM), the results for the “selective drug sensitivity score” value in the assay with NALM-6, in the assay with KASUMI-2 and in the assay on COG-LL-317 were 9.94, 4.14 and 10.3, respectively.

Source of the values: the supplement of paper PMC8967900.
